This note sets out measurements from PubChem BioAssay (NCI).

Structures are written as SMILES.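 Results reflect a 48-hour exposure of cells in 96-well plates to compound at five concentrations. Definition used: TGI = concentration required for complete inhibition of growth.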

Among the test systems are BT-549 breast; COLO 205 colon; LOX IMVI melanoma; SF-295 CNS; HL-60(TB) leukemia; OVCAR-4 ovarian; DU-145 prostate; MALME-3M melanoma; SK-MEL-5 melanoma; HCT-15 colon; NCI-H522 lung; ACHN renal; T-47D breast; K-562 leukemia; SK-MEL-2 melanoma; A549 NSCLC; OVCAR-8 ovarian; TK-10 renal; OVCAR-3 ovarian.
Holding throughout (assay): NCI-60 cell line screen, 48 h

`CC1=CCC(C)=Nc2nc3ccccc3n21`: the TGI in the assay with BT-549 breast, in the assay on COLO 205 colon, in the assay with LOX IMVI melanoma, in the assay with SF-295 CNS, with HL-60(TB) leukemia and in the assay with OVCAR-4 ovarian was > 100 µM throughout. The TGI with DU-145 prostate, in the assay with MALME-3M melanoma, with SK-MEL-5 melanoma, in the assay with HCT-15 colon, with NCI-H522 lung and in the assay on ACHN renal was > 100 µM in each case. The TGI in the assay on T-47D breast, in the assay with K-562 leukemia, in the assay on SK-MEL-2 melanoma, with A549 NSCLC, in the assay with OVCAR-8 ovarian and in the assay with TK-10 renal was > 100 µM throughout. The TGI in the assay on OVCAR-3 ovarian was > 100 µM.

Turning to `O=C1NC(=O)C(c2c[nH]c3ccccc23)=C1c1cn(C(c2ccccc2)(c2ccccc2)c2ccccc2)cn1`, the TGI in the assay on BT-549 breast was determined as 27.2 µM; in the assay with COLO 205 colon, 15 µM; with LOX IMVI melanoma it was 22.2 µM; in the assay with SF-295 CNS, 19.8 µM; in the assay with HL-60(TB) leukemia, 20.4 µM; with OVCAR-4 ovarian, 17.5 µM. Further, the TGI in the assay on DU-145 prostate stood at 63.5 µM; in the assay with MALME-3M melanoma, 23.2 µM; in the assay with SK-MEL-5 melanoma it was 20.8 µM; with HCT-15 colon it was 14.9 µM; in the assay on NCI-H522 lung, 22.9 µM; with ACHN renal, 26.6 µM. In addition, the TGI in the assay with T-47D breast came to 23.7 µM; in the assay with K-562 leukemia, 28.7 µM; in the assay with SK-MEL-2 melanoma, 25.6 µM; in the assay on A549 NSCLC, 12.8 µM; in the assay on OVCAR-8 ovarian, 28.2 µM; in the assay with TK-10 renal it was 36.5 µM. Also, in the assay on OVCAR-3 ovarian, the TGI was determined as 19.6 µM.

With `[N-]=[N+]=NC1C(O)C(CO)OC1n1ccc(=O)[nH]c1=O` (stereo not drawn), the TGI in the assay with BT-549 breast, in the assay on COLO 205 colon, in the assay on LOX IMVI melanoma, with SF-295 CNS, in the assay on HL-60(TB) leukemia and in the assay with OVCAR-4 ovarian was > 875 µM throughout. The TGI in the assay on DU-145 prostate, in the assay on MALME-3M melanoma, with SK-MEL-5 melanoma, with HCT-15 colon, with NCI-H522 lung and with ACHN renal was > 875 µM each time. In addition, the TGI in the assay on T-47D breast, in the assay on K-562 leukemia, in the assay on SK-MEL-2 melanoma, with A549 NSCLC, in the assay with OVCAR-8 ovarian and in the assay on TK-10 renal was > 875 µM each time. The TGI in the assay on OVCAR-3 ovarian was > 875 µM.

Consider `O=C(Nc1nncs1)NS(=O)(=O)n1c(=S)sc2ccccc21`, for which the TGI in the assay on BT-549 breast, with COLO 205 colon, in the assay with LOX IMVI melanoma, with SF-295 CNS, in the assay on HL-60(TB) leukemia and in the assay with OVCAR-4 ovarian was > 100 µM each time. Moreover, the TGI with DU-145 prostate, in the assay on MALME-3M melanoma, in the assay on SK-MEL-5 melanoma, with HCT-15 colon, with NCI-H522 lung and with ACHN renal was > 100 µM in each case. In addition, the TGI with T-47D breast, in the assay on K-562 leukemia, in the assay on SK-MEL-2 melanoma, in the assay on A549 NSCLC, in the assay with OVCAR-8 ovarian and with TK-10 renal was > 100 µM each time. Moreover, the TGI in the assay on OVCAR-3 ovarian is > 100 µM.

As to `O=C(NCCCl)N(O)C(=O)Nc1ccccc1`, the TGI with BT-549 breast, in the assay on COLO 205 colon, in the assay on LOX IMVI melanoma, with SF-295 CNS, in the assay with HL-60(TB) leukemia and in the assay on OVCAR-4 ovarian was > 100 µM each time. The TGI in the assay on DU-145 prostate, in the assay with MALME-3M melanoma, with SK-MEL-5 melanoma, with HCT-15 colon, in the assay with NCI-H522 lung and with ACHN renal was > 100 µM throughout. Moreover, the TGI in the assay with T-47D breast, in the assay with K-562 leukemia, in the assay with SK-MEL-2 melanoma, with A549 NSCLC, in the assay on OVCAR-8 ovarian and in the assay with TK-10 renal was > 100 µM throughout. In the assay on OVCAR-3 ovarian, the TGI is > 100 µM.

As to `COC(=O)CC1C=CC(C)(OC)OO1` (stereo not drawn), the TGI in the assay on BT-549 breast, with COLO 205 colon, with LOX IMVI melanoma, with SF-295 CNS, in the assay with HL-60(TB) leukemia and in the assay on OVCAR-4 ovarian was > 100 µM throughout. For the same molecule, the TGI with DU-145 prostate is > 100 µM; in the assay with MALME-3M melanoma, > 100 µM; with SK-MEL-5 melanoma, > 100 µM; with HCT-15 colon, > 100 µM; in the assay on NCI-H522 lung, 55.5 µM; in the assay with ACHN renal, > 100 µM. For the same molecule, the TGI in the assay on T-47D breast, in the assay on K-562 leukemia, in the assay with SK-MEL-2 melanoma, with A549 NSCLC, with OVCAR-8 ovarian and in the assay on TK-10 renal was > 100 µM throughout. For the same molecule, the TGI in the assay with OVCAR-3 ovarian is > 100 µM.

Take `O=C(/N=C/c1c(O)c2ccccc2oc1=O)Oc1ccccc1`: the TGI was 81 µM with BT-549 breast; > 100 µM with COLO 205 colon; 80.9 µM in the assay with LOX IMVI melanoma; > 100 µM in the assay on SF-295 CNS; > 100 µM with HL-60(TB) leukemia; 65.8 µM with OVCAR-4 ovarian. For the same molecule, the TGI was > 100 µM in the assay with DU-145 prostate; 61.7 µM in the assay with MALME-3M melanoma; > 100 µM with SK-MEL-5 melanoma; > 100 µM in the assay on HCT-15 colon; > 100 µM in the assay with NCI-H522 lung; > 100 µM in the assay with ACHN renal. Further, the TGI is 91.9 µM with T-47D breast; > 100 µM in the assay with K-562 leukemia; 36.1 µM in the assay on SK-MEL-2 melanoma; > 100 µM in the assay with A549 NSCLC; 91.9 µM in the assay with OVCAR-8 ovarian; 79.6 µM in the assay on TK-10 renal. In addition, the TGI in the assay with OVCAR-3 ovarian came out at 44.2 µM.
